In one test the test system is immunoglobulin light chain protein WIL-FL T46L. In words: Differential scanning fluorimetry (thermal shift) assay. Format: binding. The conditions noted are these: Table A; temperature shift [Tm]compound-[Tm]vehicle; recombinant WIL-FL T46L. (In DSF a fluorescence change marks the thermal transition of the protein.)
In the case of `Cc1cc(N2CC[C@](C)(c3ccccc3)C2)cn2nc(C34CC(CO)(CO3)C4C(N)=O)nc12` (stereo partly shown) [Compound 42], the DSF result was “***** (>2.5° C.=*****)”.

`Cc1cc(N2CC[C@](C)(c3ccccc3)C2)cn2nc(C(=O)N3CCC4(C3)CN(c3cccc(C(=O)O)n3)CCO4)nc12` (stereo partly shown) [Compound 222]: the DSF result is on record as “***** (>2.5° C.=*****)”.

With `Cc1cc(N2CCC(C)(c3ccc(O)cc3)C2)cn2nc(C(=O)N3CC[C@@]4(CCN(c5cccc(C(=O)O)n5)C4)C3)nc12` (stereo partly shown) [Compound 413], the DSF result is given as “**** (>1.5-2.5° C.=****)”.

`Cc1cc(N2CC[C@](C)(c3ccccc3)C2)cn2nc(C(=O)N3CCn4nc(-c5cc(C(=O)O)ccn5)nc4C3)nc12` [Compound 405]: the DSF result is “***** (>2.5° C.=*****)”.

In the case of `Cc1cc(N2CC[C@](C)(c3ccccc3)C2)cn2nc(C(=O)NC34COC(C#N)(C3)C4)nc12` [Compound 127], the DSF result is given as “***** (>2.5° C.=*****)”.

Turning to `Cc1cc(N2CC[C@](C)(c3ccccc3)C2)cn2nc(C(=O)NC3COCC3(C)O)nc12` (stereo partly shown) [Compound 141], the DSF entry is on record as “***** (>2.5° C.=*****)”.

On to `Cc1cc(N2CC[C@](C)(c3ccccc3)C2)cn2nc(C(=O)NC3CCN(N4C[C@@H](O)[C@@H](O)C4)C3)nc12` (stereo partly shown) [Compound 156], for which the DSF result is listed as “***** (>2.5° C.=*****)”.

Turning to `Cc1cc(N2CC[C@](C)(c3ccccc3)C2)cn2nc(C(=O)NC3CN(CC(=O)O)CC3O)nc12` (stereo partly shown) [Compound 110], the DSF result was “***** (>2.5° C.=*****)”.

Regarding `Cc1cc(N2CC[C@](C)(c3ccccc3)C2)cn2nc(C(=O)N3CCC4(CCN(c5nc(C(=O)O)n[nH]5)C4)C3)nc12` (stereo partly shown) [Compound 235], the DSF result was “***** (>2.5° C.=*****)”.

Consider `Cc1cc(N2CC[C@](C)(c3ccccc3)C2)cn2nc(C(=O)NC3C4COCC43)nc12` (stereo partly shown) [Compound 129], for which the DSF result is recorded as “***** (>2.5° C.=*****)”.

As for `Cc1cnc(C2(C)CCN(c3cc(C)c4nc(C(=O)N5CC6CN(c7cccc(C(=O)O)n7)CC6C5)nn4c3)C2)nc1` (stereo not shown) [Compound 400], the DSF entry was “** (>0.5-1 °C =**)”.

As to `CCC1(c2cccc(C)c2)CN(c2cc(C)c3nc(C(=O)N4C[C@@H]5CN(c6cccc(C(=O)O)n6)C[C@@H]5C4)nn3c2)C1` [Compound 397], the DSF entry is on record as “***** (>2.5° C.=*****)”.

Consider `Cc1cc(N2CC[C@](C)(c3ccccc3)C2)cn2nc(C(=O)N3CCCN(c4cccc(C(=O)O)n4)CCC3)nc12` [Compound 288], for which the DSF entry is listed as “***** (>2.5° C.=*****)”.

Consider `Cc1cc(N2CC[C@](C)(c3ccccc3)C2)cn2nc(C(=O)NC3CC4(CCC4N4CCC(C(=O)O)CC4)C3)nc12` (stereo partly shown) [Compound 374], for which the DSF result is reported as “***** (>2.5° C.=*****)”.

As to `Cc1cc(N2CC[C@](C)(c3ccccc3)C2)cn2nc(C(=O)NC3CC4(C3)CC(N3CCOC(C(=O)O)C3)C4)nc12` (stereo partly shown) [Compound 358], the DSF entry is listed as “***** (>2.5° C.=*****)”.

On to `Cc1cc(N2CC[C@](C)(c3ccccc3)C2)cn2nc(C(=O)NC3C4CCC3NC4)nc12` (stereo partly shown) [Compound 201], for which the DSF entry is reported as “***** (>2.5° C.=*****)”.

In the case of `COC(=O)c1cccc(-c2nc3n(n2)CCN(C(=O)c2nc4c(C)cc(N5CC[C@](C)(c6ccccc6)C5)cn4n2)C3)n1` [Compound 403], the DSF result is “***** (>2.5° C.=*****)”.

`Cc1cc(N2CC[C@](C)(c3ccccc3)C2)cn2nc(C(=O)N[C@@H]3CN[C@H](C(C)(C)O)C3)nc12` [Compound 162]: the DSF result is listed as “***** (>2.5° C.=*****)”.

Take `Cc1cc(N2CC[C@](C)(c3ccccc3)C2)cn2nc(C(=O)N[C@H]3COCC[C@@H]3O)nc12` [Compound 157]: the DSF entry is “***** (>2.5° C.=*****)”.

With `Cc1cc(N2CC[C@](C)(c3ccccc3)C2)cn2nc(C34CC(CO3)C4CC(N)=O)nc12` (stereo partly shown) [Compound 85], the DSF entry is on record as “***** (>2.5° C.=*****)”.

As to `CCC1(c2ccccc2)CN(c2cc(C)c3nc(C(=O)N4CCC5(CCN(c6cccc(C(=O)O)n6)C5)C4)nn3c2)C1` (stereo not shown) [Compound 394], the DSF result is listed as “***** (>2.5° C.=*****)”.

With `CNC(=O)c1nc2c(C)cc(N3CC[C@](c4ccccc4)(C(F)F)C3)cn2n1` [Compound 328], the DSF result is “**** (>1.5-2.5° C.=****)”.

Regarding `Cc1cc(N2CC(C)(c3ccccc3)C2)cn2nc(C(=O)N3C[C@@H]4CN(c5cccc(C(=O)O)n5)C[C@@H]4C3)nc12` [Compound 399], the DSF result was “***** (>2.5° C.=*****)”.

With `Cc1cc(N2CC[C@](C)(c3ccccc3)C2)cn2nc(C34CC(N)(CO3)C4)nc12` [Compound 5, 1-[8-methyl-6-[(3R)-3-methyl-3-phenyl-pyrrolidin-1-yl]-[1,2,4]triazolo[1,5-a]pyridine-2-yl]-2-oxabicyclo[2.1.1]hexan-4-amine], the DSF result was “***** (>2.5° C.=*****)”.

Staying with this test, now noted: Table B; temperature shift [Tm]compound-[Tm]vehicle; recombinant WIL-FL T46L.
In the case of `Cc1cc(N2CC[C@](C)(c3ccccc3)C2)cn2nc(C34CC(CO3)C4NC(=O)C3(C)CN(c4cccc(C(=O)O)n4)C3)nc12` (stereo partly drawn) [Compound 533, 6-(3-methyl-3-((1-(8-methyl-6-((R)-3-methyl-3-phenylpyrrolidin-1-yl)-[1,2,4]triazolo[1,5-a]pyridin-2-yl)-2-oxabicyclo[2.1.1]hexan-5-yl)carbamoyl)azetidin-1-yl)picolinic acid], the DSF entry is “***** (>2.5° C.=*****)”.

Turning to `Cc1cnn(CC23COC(c4nc5c(C)cc(N6CC[C@](C)(c7ccccc7)C6)cn5n4)(C2)C3)n1` [Compound 450], the DSF result is “***** (>2.5° C.=*****)”.

With `Cc1cc(N2CC[C@](C)(c3ccccc3)C2)cn2nc(C(=O)NC3CC[C@@]4(CCN(c5cccc(C(=O)O)n5)C4)C3)nc12` (mixture of isomers) [Compound 634, 6-[rac-(5R)-8-[[8-methyl-6-[rac-(3R)-3-methyl-3-phenyl-pyrrolidin-1-yl]-[1,2,4]triazolo[1,5-a]pyridine-2-carbonyl]amino]-2-azaspiro[4.4]nonan-2-yl]pyridine-2-carboxylic acid], the DSF entry was “***** (>2.5° C.=*****)”.

For `Cc1cc(N2CC[C@](C)(c3ccccc3)C2)cn2nc(C34CC(NC(=O)c5cccc(C(=O)O)n5)(CO3)C4)nc12` [Compound 466, (R)-6-((1-(8-methyl-6-(3-methyl-3-phenylpyrrolidin-1-yl)-[1,2,4]triazolo[1,5-a]pyridin-2-yl)-2-oxabicyclo[2.1.1]hexan-4-yl)carbamoyl)picolinic acid], the DSF result is given as “***** (>2.5° C.=*****)”.

For `CCS(=O)(=O)Nc1n[nH]c(C2C3(CN)COC2(c2nc4c(C)cc(N5CC[C@](C)(c6ccccc6)C5)cn4n2)C3)n1` (stereo partly shown) [Compound 548], the DSF result is listed as “***** (>2.5° C.=*****)”.

As for `Cc1cc(N2CC[C@](C)(c3ccccc3)C2)cn2nc(C34CC(N5CC6(CC6C(=O)O)C5)(CO3)C4)nc12` (stereo partly drawn) [Compound 470, 5-[1-[8-methyl-6-[(3R)-3-methyl-3-phenyl-pyrrolidin-1-yl]-[1,2,4]triazolo[1,5-a]pyridin-2-yl]-2-oxabicyclo[2.1.1]hexan-4-yl]-5-azaspiro[2.3]hexane-2-carboxylic acid], the DSF result is given as “***** (>2.5° C.=*****)”.

With `Cc1cc(N2CC[C@](C)(c3ccccc3)C2)cn2nc(C(=O)N3CCc4c(nnn4C4CCC(C(=O)O)C4)C3)nc12` (stereo partly shown) [Compound 638], the DSF entry is on record as “***** (>2.5° C.=*****)”.

Consider `Cc1cc(NC(=O)C23COC(c4nc5c(C)cc(N6CC[C@](C)(c7ccccc7)C6)cn5n4)(C2)C3)cc(C(=O)O)n1` [Compound 452], for which the DSF result is “***** (>2.5° C.=*****)”.

As for `CCC(=O)Nc1n[nH]c(C2C3(CO)COC2(c2nc4c(C)cc(N5CC[C@](C)(c6ccccc6)C5)cn4n2)C3)n1` (stereo partly drawn) [Compound 572, N-[5-[4-(hydroxymethyl)-1-[8-methyl-6-[(3R)-3-methyl-3-phenyl-pyrrolidin-1-yl]-[1,2,4]triazolo[1,5-a]pyridin-2-yl]-2-oxabicyclo[2.1.1]hexan-5-yl]-1H-1,2,4-triazol-3-yl]propanamide], the DSF result is recorded as “***** (>2.5° C.=*****)”.

For the molecule `Cc1nc([C@H]2[C@]3(CO)CO[C@@]2(c2nc4c(C)cc(N5CC[C@](C)(c6ccccc6)C5)cn4n2)C3)n[nH]1` [Compound 581, ((1S,4R,5R)-5-(5-methyl-1H-1,2,4-triazol-3-yl)-1-(8-methyl-6-((R)-3-methyl-3-phenylpyrrolidin-1-yl)-[1,2,4]triazolo[1,5-a]pyridin-2-yl)-2-oxabicyclo[2.1.1]hexan-4-yl)methanol], the DSF entry is given as “***** (>2.5° C.=*****)”.

As to `Cc1cc(N2CC[C@](C)(c3ccccc3)C2)cn2nc(C34CC(CC(=O)Nc5cccc(C(=O)O)n5)(CO3)C4)nc12` [Compound 460, 6-[[2-[1-[8-methyl-6-[(3R)-3-methyl-3-phenyl-pyrrolidin-1-yl]-[1,2,4]triazolo[1,5-a]pyridin-2-yl]-2-oxabicyclo[2.1.1]hexan-4-yl]acetyl]amino]pyridine-2-carboxylic acid], the DSF result is “***** (>2.5° C.=*****)”.

Consider `CCOC(=O)Nc1n[nH]c(C2C3COC2(c2nc4c(C)cc(N5CC[C@](C)(c6ccccc6)C5)cn4n2)C3)n1` (stereo partly shown) [Compound 551], for which the DSF entry is listed as “***** (>2.5° C.=*****)”.

For `Cc1cc(N2CC[C@](C)(c3ccccc3)C2)cn2nc(C(=O)N3CCC4C3CC(=O)N4c3cccc(C(=O)O)n3)nc12` (stereo partly shown) [Compound 688], the DSF entry is listed as “***** (>2.5° C.=*****)”.

For the molecule `Cc1cc(N2CC[C@](C)(c3ccccc3)C2)cn2nc(C34CC(CO3)C4Cc3nnc[nH]3)nc12` (stereo partly drawn) [Compound 505, 2-(5-((4H-1,2,4-triazol-3-yl)methyl)-2-oxabicyclo[2.1.1]hexan-1-yl)-8-methyl-6-((R)-3-methyl-3-phenylpyrrolidin-1-yl)-[1,2,4]triazolo[1,5-a]pyridine], the DSF entry is “***** (>2.5° C.=*****)”.

Regarding `COc1ncc(N2CC[C@@]3(CCN(C(=O)c4nc5c(C)cc(N6CC[C@](C)(c7ccccc7)C6)cn5n4)C3)C2)cc1C(=O)O` [Compound 718], the DSF result was “***** (>2.5° C.=*****)”.

For `Cc1nc(C2C3(CNS(=O)(=O)CC(C)(C)C(=O)O)COC2(c2nc4c(C)cc(N5CC[C@](C)(c6ccccc6)C5)cn4n2)C3)n[nH]1` (stereo partly drawn) [Compound 584, 2,2-dimethyl-3-(N-((5-(5-methyl-11H-1,2,4-triazol-3-yl)-1-(8-methyl-6-((R)-3-methyl-3-phenylpyrrolidin-1-yl)-[1,2,4]triazolo[1,5-a]pyridin-2-yl)-2-oxabicyclo[2.1.1]hexan-4-yl)methyl)sulfamoyl)propanoic acid], the DSF result is listed as “***** (>2.5° C.=*****)”.
